Reference: patent US8552064B2, “Suramin and derivatives thereof as topical microbicide and contraceptive” (Eastern Virginia Medical School, priority 2005, dated 2013)
Converted amounts (≈) assume the structure as drawn. Like-named read-outs stand apart in the source and are kept apart here.

Tests used:
[1] = tested on: HIV-1-infected SupT1 cells (strain IIIB); experiment: Cell-to-cell transmission (CTC) assay; format: cell-based; details: for IC50: Human immunodeficiency virus 1, IIIB, SUP-T1
Description: HIV-1-infected SupT1 cells (strain IIIB), killed by prior exposure to mitomycin C (200 μg/mL) for 1 hour at 37° C., were incubated with each agent and P4-R5 (MAGI) cells for 2 hours at 37° C. Following the incubation period, cells were washed and provided with new media. Successful transmission and subsequent replication events were quantitated using Galacto-Star assay 48 hr post-infection. Infected cells were expressed as a percent of cells infected after mock exposure. In each assay, triplicate wells were tested for each concentration. The results of this assay are provided herein.

[2] = tested on: human vaginal cell line (VK2); format: cell-based
Description: Vaginal cytotoxicity was determined by 3-[4,5-dimethylthiazol-2-yl]-2,5-diphenyl tetrazolium bromide (MTT) assay and cytokine assays, both as described in Fichorova R. N. et al., J. Infect. Dis. 184(4): 418-28, 2001). The MTT assay assesses the cytotoxicity of various compounds against cell lines by plating the desired cells prior to exposure to the compounds. On the day of treatment, culture medium was carefully aspirated from the wells and replaced with fresh medium containing the test compound at various concentrations. The cells were incubated with the various compounds for 6 hours, washed with fresh medium and MTT was then added and the plates were incubated at 37° C. for a period of time sufficient to allow MTT to form formazan crystals by reacting with metabolically active cells. The formazan crystals were solubilized overnight at 37° C. in a solution containing 10% SDS in 0.01 M HCl. The absorbance of each well was measured in a microplate reader (Dynex) at 540 nm and a reference wavelength of 690 nm.

[3] = tested on: interleukin release by vaginal cells; format: cell-based, human
Description: Interleukin levels were assessed in the supernatant collected after 6 hours of compound-cells incubation using commercial ELISA kits (R&D Diagnostics, Minneapolis, Minn.) according to manufacturer's instructions (also see Fichorova R. N. et al., J. Infect. Dis. 184(4): 418-28, 2001).

SIV = SIV reverse transcriptase assay; format: cell-based
Description: Reverse transcriptase activity, a measurement of virus replication, was measured in cell-free supernatants. Tritiated thymidine triphosphate (NEN) (TFP) was resuspended in distilled H2O at 5 Ci/mL. Poly rA and oligo dT were prepared as a stock solution which was kept at −20° C. The RT reaction buffer was prepared fresh on a daily basis and consisted of 125 μL 1.0 M EGTA, 125 μL dH2O, 110 μL 10% […], 50 μL 1.0 M Tris (pH 7.4), 50 μL 1.0 M DTT, and 40 μL 1.0 M MgCl2. These three solutions were mixed together in a ratio of 2 parts TTP, 1 part poly rA:oligo dT, and 1 part reaction buffer. Ten microliters (10 μL) of this reaction mixture was placed in a round bottom microtiter plate and 15 μL of virus containing supernatant added and mixed. The plate was incubated at 37° C. for 60 minutes. Following reaction, the reaction volume was spotted onto pieces of DE81 paper, washed 5 times for 5 minutes each in a 5% sodium phosphate buffer, 2 times for 1 minute each in distilled water, 2 times for 1 minute each in 70% ethanol, and then dried. Opti-Fluor 0 was added to each sample and incorporated radioactivity quantitated utilizing a Wallac 1450 Microbetaplus liquid scintillation counter. The results of this assay are provided herein.

[4] = Pharmacokinetics in female rats, intravenous and intravaginal; format: in vivo, rat; details: for Vd: read-out: Vdss
Description: Female rats (n=6) were administered with 30 mg of compound per kg in a single I.V. dose in saline or intravaginally, BID, for 5 days, formulated in KY jelly. The selected single dose represented 10 times the estimated human dose (250 mg). […] Following intravenous administration, relatively high concentrations of suramin sodium (mean value=563 μg/mL) were measured in plasma at 1 hour (first time-point) following the onset of dosing. […] The mean volume of distribution was calculated at 147 mL/kg.

[5] = tested on: sperm penetration in cervical mucus; experiment: Modified One End Test (MOET), sperm penetration in bovine cervical mucus; format: cell-based
Excerpt: Bovine cervical mucus was obtained from Humagen (Charlottesville, Va.) in the form of prepackaged flat capillary tubes (Penetrak®), kept frozen and thawed right prior to the experiment. The Modified One End Test (MOET) [(described in Doncel G. F., in “Barrier Contraceptives”, Wiley-Liss, Mauck C. K. et al. eds., pp. 147-162 (1994)] was used to determine the effect of compounds, such as suramin sodium described herein, on sperm penetration in cervical mucus. Each of the test compositions containing the compound to be tested were diluted in a saline solution, i.e., at 9 grams of NaCl per liter of water. Tubes of cervical mucus were broken open. The open end was placed in a container containing the test compound in saline. The test compound was allowed to diffuse for 30 minutes through the tube. A semen sample, obtained from normal healthy donors, was then diluted with a buffer solution to 60 million motile sperm per milliliter and mixed with the test compound sample (i.e., suramin sodium). The tube containing the test compound sample was then re-inserted into the container containing the mixed solution and stored in an incubator at 37° C. in an atmosphere of 5 percent carbon dioxide in air for 60 minutes. The container and tube were then removed from the incubator and the tube was visually analyzed under a microscope for the migration of motile vanguard sperm through the tube. The results are expressed as percentage of migration as compared to control samples. In the control samples, the tubes were incubated with saline containing no compound. […]

sperm = experiment: Sperm progressive motility dose-response and time studies, CASA; format: cell-based, human
[6] = female, rat, plasma, IV: single dose 30 mg/kg
[7] = female, rat, plasma, IVag: 30 mg/kg BID for 5 days

Cc1ccc(C(=O)Nc2ccc(S(=O)(=O)O)c3cc(S(=O)(=O)O)cc(S(=O)(=O)O)c23)cc1NC(=O)c1cccc(NC(=O)Nc2cccc(C(=O)Nc3cc(C(=O)Nc4ccc(S(=O)(=O)O)c5cc(S(=O)(=O)O)cc(S(=O)(=O)O)c45)ccc3C)c2)c1 [Suramin, 8,8′-(carbonylbis(imino-3,1-phenylenecarbonylimino(4-methyl-3,1-phenylene)carbonylimino))bis-1,3,5-naphthalene trisulfonic acid]
Potency, HIV-1 CTC [1]: High
IC50 ([1]; CD4-dependent cell-to-cell transmission, API, read-out: IC50 CTC assay): 93.5 µg/mL (≈ 72.1 µM)
IC50 ([1]; not API (Table 8: 2% suramin in Replens), read-out: IC50 CTC, second value beside API): 9.6 µg/mL (≈ 7.4 µM)
cytotoxicity in comparative study [2]: the least cytotoxic of them all
N-9-induced release of IL-1 and IL-8 by vaginal cells [3]: decreased N-9-induced release of IL-1 and IL-8
Potency, Proinflammatory Cytokines (ELISA) [3]: None
stimulation of proinflammatory cytokines [3]: no stimulation of proinflammatory cytokines
release of IL-1β by cultured vaginal cells ([3]; human, 6 h): did not induce the release of IL-1β
Potency, SIV Reverse transcriptase (SIV): High
IC50 (SIV; Simian immunodeficiency virus): 4 µg/mL (≈ 3.08 µM)
clinical signs ([4]; 30 mg/kg I.V. or intravaginally BID 5 days): No clinical signs were observed
t½ ([4]; IV: single dose 30 mg/kg, 30 mg/kg): 68.6 h
Kel ([4]; IV: single intravenous dose of 30 mg/kg, female rats, plasma): 0.0102
t½ ([4]; IVag: 30 mg/kg BID for 5 days, listed as Suramin sodium): 132 h
Kel ([4]; IVag: intravaginal 30 mg/kg BID for 5 days in KY jelly): 0.005
bioavailability after intravaginal administration ([4]; calculated from the total dose (90 mg) administered intravaginally): < 1%
histological lesions in vagina, lungs, liver and kidneys ([4]; female rats receiving the intravenous solution): No histological lesions were observed
AUC ([4]; female, rat, plasma, 30 mg/kg, IVag: 30 mg/kg BID for 5 days, zero to 144 hr post dose, read-out: AUC(tf)): 1170 µg·h/mL
AUC ([4]; female, rat, plasma, 30 mg/kg, IVag: 30 mg/kg BID for 5 days, zero to infinity, read-out: AUC(I)): 2280 µg·h/mL
half-life ([4]; female, rat, plasma, 30 mg/kg, intravaginal administration, read-out: mean half-life (converted)): ~132 h
bioavailability ([4]; female, rat, plasma, 90 mg, calculated from the total dose (90 mg) administered intravaginally, read-out: bioavailability after intravaginal administration): 0.8%
half-life ([4]; female, rat, plasma, iv, 30 mg/kg, IV: single dose 30 mg/kg, read-out: t½ (converted)): 68.5 h
AUC ([4]; female, rat, plasma, iv, 30 mg/kg, IV: single dose 30 mg/kg, zero to 144 hr post dose, read-out: AUC(tf)): 13900 µg·h/mL
AUC ([4]; female, rat, plasma, iv, 30 mg/kg, IV: single dose 30 mg/kg, zero to infinity, read-out: AUC(I)): 17300 µg·h/mL
clearance [4, 6]: 0.0292 mL/min
Vd [4, 6]: 0.147 L/kg
Cmax ([4]; female, rat, plasma, IV: single intravenous dose of 30 mg/kg, at 1 hour): 563 µg/mL
clearance [4, 7]: 0.0001 mL/min
Cmax ([4]; female, rat, plasma, IVag: 30 mg/kg BID for 5 days, at 3.5 hours following the last dose): 17.7 µg/mL
Vd [4, 7]: 0.132 L/kg
MOET % CTL ([5]; 6.25 mg/ml): 96.1 ± 0.9 % CTL
MOET % CTL ([5]; 12.5 mg/ml): 94.9 ± 2.2 % CTL
sperm impediment in MOET ([5]; 25 mg/mL or below): No significant sperm impediment
MOET % CTL ([5]; 25 mg/ml): 95.9 ± 1.4 % CTL
inhibition of sperm penetration in MOET ([5]; 50 mg/mL (5%)): only minor inhibition of sperm penetration
MOET % CTL ([5]; 50 mg/ml): 72.3 ± 7.1 % CTL
degree of inhibition of sperm penetration ([5]; KY, suramin sodium in KY and suramin sodium alone at the same concentration): ~4%
sperm motion parameters by CASA (sperm; 1 mM): no significant changes in sperm motion parameters
sperm motion characteristics vs control (sperm; 7.5 mg/mL): did not appear to be significantly different
sperm progressive motility and membrane integrity vs solvent control (sperm; 1-10,000 μg/mL or 5-0.07 mM): no alteration of sperm progressive movement and viability
sperm motility, time-dependent study (sperm; suboptimal doses, prolonged incubation (e.g., 30 min.)): no alteration of sperm motility
